According to patent US20070158611A1, “Compositions comprising nanorods and methods of making and using them” (priority 2005, published 2007):

Tested on: Acidovorax delafieldii (ATCC #17505)
Experiment: Bactericidal properties of silver nanofluids, colony count on NB agar plates
Type: cell-based
Protocol: The addition of nanostructures to fluids can prevent bacterial growth. The bactericidal properties of spherical silver colloid and silver nanorods was measured and compared with the bactericidal properties of silver nitrate. Lyophilized Acidovorax delafieldii (ATCC #17505) bacterium was reconstituted in Difco Nutrient Broth (NB), streaked onto NB agar plates and incubated for 24 hours at 37° C. A single colony was isolated and used to inoculate an NB culture that was grown to mid-log phase where the visibly cloudy solution has an optical density of 0.3 at a wavelength of 600 nm. 10 μL of this preculture (˜2.3×10^4 CFU/mL) was mixed with 5 mL of NB medium that contained 0.2 mg/mL, 0.02 mg/mL, 2 μg/mL, 0.02 μg/mL, and 0.002 μg/mL concentrations of either silver nitrate (AgNO3), silver colloid, or silver nanorods. […] Viable cells were enumerated by the colony count method on NB agar plates.

For `O=[N+]([O-])[O-].[Ag+]` [AgNO3, silver nitrate], the “biocide activity compared with other silver samples” value (28 hours, 37° C.) was “highest biocide activity” and the CFU/mL (Acidovorax delafieldii in NB after 28 hours of incubation at 37° C., sample concentration as in Sample cell (text: 0.2 μg/mL Ag)) was 1.2 × 10^3 CFU/mL.
